According to patent US20100292205A1, “Pyrimidone Compounds As GSK-3 Inhibitors” (PFIZER INC., priority 2006, published 2010):
pIC50: −log10 of the molar value.

The compounds below were run against T1, Recombinant human GSK3β (Homo sapiens, UniProt P49841) (assay: GSK-3β (Glycogen Synthase Kinase) cell free enzyme assay). Conditions: 1 μM; Examples 236-262.
T1 construct: His-tag; made in house; host or cells: Sf9 insect cells / baculovirus
T1 sequence (P49841 whole entry): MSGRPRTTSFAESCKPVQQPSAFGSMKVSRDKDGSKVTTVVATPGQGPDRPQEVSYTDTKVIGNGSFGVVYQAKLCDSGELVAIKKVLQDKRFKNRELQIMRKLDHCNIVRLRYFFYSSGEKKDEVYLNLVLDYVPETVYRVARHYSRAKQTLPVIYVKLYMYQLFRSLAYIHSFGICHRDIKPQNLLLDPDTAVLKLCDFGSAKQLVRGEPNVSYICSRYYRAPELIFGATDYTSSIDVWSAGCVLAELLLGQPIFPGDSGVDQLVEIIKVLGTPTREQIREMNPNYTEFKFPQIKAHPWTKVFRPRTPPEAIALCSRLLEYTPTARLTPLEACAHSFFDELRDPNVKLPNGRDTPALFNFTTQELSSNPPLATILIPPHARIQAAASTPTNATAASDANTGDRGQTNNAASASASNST
Assay type: biochemical
Description: Assay Protocol for GSK-3β (Glycogen Synthase Kinase) in a Cell Free Enzyme Assay
Recombinant human GSK3β was expressed in SF9/Baculo virus cells. His-tag protein was purified by affinity chromatography to a Ni-NTA Superflow column. Enzyme activity was assayed as the incorporation of [33P] from the gamma phosphate of [33P]ATP (PerkinElmer) into biotinylated peptide substrate bio-LC-S-R-H-S-S-P-H-Q-pS-E-D-E-E-E-OH (Anaspec). Reactions were carried out in a buffer containing 8 mM MOPS (pH 7.0), 10 mM Magnesium Acetate, 0.2 mM EDTA, 1 mM DTT and 2 uM cold ATP. The 33P-ATP was added for 0.025 uCi/well (120 uL) and the final concentration of substrate was 1.0 uM. Enzyme was preincubated with test agent for 30 minutes at room temperature followed by initiation of the reaction by the addition of substrate mix. Incubations were carried out at RT for 60 min. Reactions were stopped by addition of 0.66 volume of buffer containing: 12.5 mM EDTA, 0.25% Triton-X 100, 125 uM ATP, and 6.2 mg/ml streptavidin coated SPA beads (Amersham) in PBS without Ca or Mg. Radioactivity associated with the beads was quantified by scintillation counting of CPM in a Trilux counter (PerkinElmer).
Examples 42 to 60 were prepared using the analogous procedure described to prepare Example 41, substituting the appropriate starting material (Examples 1 to 35) and coupling with the appropriate acid. The assay protocol used is the percent inhibition at 1 μM for GSK-3β in the cell free enzyme assay described above.
“2-[(1R,5S)-3-Benzyl- 38- diazabicyclo[3.2.1]oct- 8-yl]-3-methyl-6- pyridin-4-ylpyrimidin- 4(3H)-one [Example 250]” was tested, and the “Percent inhibition at 1 μM” value was 69%.

Same assay, conditions: 1 μM; GSK-3β cell free enzyme assay; Examples 42-60
“2-{[(3a,S5,S7,aR)-1- Acetyl-3a- methyloctahydro-1H- indol-5- yl](methyl)amino}-3- methyl-6-pyridin-4- ylpyrimidin-4(3H)-one [Example 50]” was tested, and the “Percent inhibition at 1 μM” value was 82%.

Same assay, conditions: cell free enzyme assay; Examples 1-35
`Cn1c(N2CC[C@@](O)(c3ccccc3)[C@H]3CCCC[C@H]32)nc(-c2ccncc2)cc1=O` [Example 1, 2-[(4S,4aS,8aR)-4-Hydroxy-4-phenyloctahydro-quinolin-1(2H)-yl]-3-methyl-6-pyridin-4-ylpyrimidin-4(3H)-one] showed a pIC50 of 9.15.
Compound `Cn1c(N[C@H]2[C@@H]3CN(C(=O)OC(C)(C)C)C[C@@H]32)nc(-c2ccncc2)cc1=O` [Example 2, tert-butyl (1R,5S,6s)-6-[(1-Methyl-6-oxo-4-pyridin-4-yl-1,6-dihydropyrimidin-2-yl)amino]-3-azabicyclo[3.1.0] hexane-3-carboxylate] has a pIC50 of 8.66.
With `Cn1c(NCC2OCCc3ccccc32)nc(-c2ccncc2)cc1=O` (stereo not shown) [Example 3, 2-[(3,4-dihydro-1H-Isochromen-1-ylmethyl)amino]-3-methyl-6-pyridin-4-ylpyrimidin-4(3H)-one] the pIC50 was 7.64.
`CCN(C[C@@H]1CCCN1C(=O)OC(C)(C)C)c1nc(-c2ccncc2)cc(=O)n1C` [Example 4, tert-butyl (2S)-2-{[Ethyl(1-methyl-6-oxo-4-pyridin-4-yl-1,6-dihydropyrimidin-2-yl)amino]methyl} pyrrolidine-1-carboxylate] showed a pIC50 of 8.38.
`CCN(C[C@H]1CCCN1C(=O)OC(C)(C)C)c1nc(-c2ccncc2)cc(=O)n1C` [Example 5, tert-butyl (2R)-2-{[Ethyl(1-methyl-6-oxo-4-pyridin-4-yl-1,6-dihydropyrimidin-2-yl)amino]methyl} pyrrolidine-1-carboxylate] showed a pIC50 of 8.68.
With `Cn1c(N[C@H]2[C@@H]3CN(C(=O)OC(C)(C)C)C[C@@H]32)nc(-c2ccncc2)cc1=O` [Example 6, tert-butyl (1R,5S,6s)-6-[(1-Methyl-6-oxo-4-pyridin-4-yl-1,6-dihydropyrimidin-2-yl)amino]-3-azabicyclo[3.1.0] hexane-3-carboxylate] the pIC50 was 8.55.
`CC1c2cccn2CCN1c1nc(-c2ccncc2)cc(=O)n1C` (stereo not shown) [Example 7, 3-Methyl-2-(1-methyl-3,4-dihydropyrrolo[1,2-a]pyrazin-2(1H)-yl)-6-pyridin-4-ylpyrimidin-4(3H)-one] gave a pIC50 of 7.97.
Work on `Cn1c(NC2CCCN(C(=O)OC(C)(C)C)CC2)nc(-c2ccncc2)cc1=O` (stereo not shown) [Example 8, tert-butyl 4-[(1-Methyl-6-oxo-4-pyridin-4-yl-1,6-dihydropyrimidin-2-yl)amino]azepane-1-carboxylate] yielded a pIC50 of 8.04.
`Cn1c(N[C@H]2Cc3ccccc3NC2=O)nc(-c2ccncc2)cc1=O` [Example 9, (3S)-3-[(1-Methyl-6-oxo-4-pyridin-4-yl-1,6-dihydropyrimidin-2-yl)amino]-3,4-dihydroquinolin-2(1H)-one] was tested, and the pIC50 was 7.52.
For `CN(c1nc(-c2ccncc2)cc(=O)n1C)C1CCCN(C(=O)OC(C)(C)C)CC1` (stereo not shown) [Example 10, tert-butyl 4-[Methyl(1-methyl-6-oxo-4-pyridin-4-yl-1,6-dihydropyrimidin-2-yl)amino]azepane-1-carboxylate], the pIC50 was 7.84.
For `CN(c1nc(-c2ccncc2)cc(=O)n1C)C1CCN(C(=O)OC(C)(C)C)C1` (stereo not shown) [Example 11, tert-butyl 3-[Methyl(1-methyl-6-oxo-4-pyridin-4-yl-1,6-dihydropyrimidin-2-yl)amino]pyrrolidine-1-carboxylate], the pIC50 was 7.75.
Work on `Cn1c(N2[C@@H]3CC[C@H]2CN(C(=O)OC(C)(C)C)C3)nc(-c2ccncc2)cc1=O` [Example 12, tert-butyl (1R,5S)-8-(1-Methyl-6-oxo-4-pyridin-4-yl-1,6-dihydropyrimidin-2-yl)-3,8-diazabicyclo[3.2.1] octane-3-carboxylate] yielded a pIC50 of 7.49.
`CCN(c1nc(-c2ccncc2)cc(=O)n1C)C1CCN(C(=O)OC(C)(C)C)C1` (stereo not shown) [Example 13, tert-butyl 3-[Ethyl(1-methyl-6-oxo-4-pyridin-4-yl-1,6-dihydropyrimidin-2-yl)amino]pyrrolidine-1-carboxylate] gave a pIC50 of 7.78.
For `Cn1c(NC[C@H]2CCN(C(=O)OC(C)(C)C)C2)nc(-c2ccncc2)cc1=O` [Example 14, tert-butyl (3R)-3-{[(1-Methyl-6-oxo-4-pyridin-4-yl-1,6-dihydropyrimidin-2-yl)amino]methyl} pyrrolidine-1-carboxylate], the pIC50 was 7.13.
`CCN(c1nc(-c2ccncc2)cc(=O)n1C)C1CCCN(C(=O)OC(C)(C)C)CC1` (stereo not shown) [Example 15, tert-butyl 4-[Ethyl(1-methyl-6-oxo-4-pyridin-4-yl-1,6-dihydropyrimidin-2-yl)amino]azepane-1-carboxylate] showed a pIC50 of 7.51.
Work on `Cn1c(N2[C@@H]3CC[C@H]2CC(n2cnc4ccccc42)C3)nc(-c2ccncc2)cc1=O` (stereo partly drawn) [Example 16, 2-[(1R,5S)-3-(1H-Benzimidazol-1-yl)-8-azabicyclo[3.2.1]oct-8-yl]-3-methyl-6-pyridin-4-ylpyrimidin-4(3H)-one] yielded a pIC50 of 7.69.
With `Cn1c(N[C@H]2CN(C(=O)OC(C)(C)C)C[C@@H]2F)nc(-c2ccncc2)cc1=O` [Example 17, tert-butyl (3S,4S)-3-Fluoro-4-[(1-methyl-6-oxo-4-pyridin-4-yl-1,6-dihydropyrimidin-2-yl)amino]pyrrolidine-1-carboxylate] the pIC50 was 7.58.
`Cn1c(NCC2CCCN2C(=O)OC(C)(C)C)nc(-c2ccncc2)cc1=O` (stereo not shown) [Example 18, tert-butyl 2-{[(1-Methyl-6-oxo-4-pyridin-4-yl-1,6-dihydropyrimidin-2-yl)amino]methyl} pyrrolidine-1-carboxylate] gave a pIC50 of 6.97.
Work on `Cn1c(NC2CCCN(C(=O)OC(C)(C)C)C2)nc(-c2ccncc2)cc1=O` (stereo not shown) [Example 19, tert-butyl 3-[(1-Methyl-6-oxo-4-pyridin-4-yl-1,6-dihydropyrimidin-2-yl)amino]piperidine-1-carboxylate] yielded a pIC50 of 7.38.
With `Cn1c(NC2CCCCN(C(=O)OC(C)(C)C)C2)nc(-c2ccncc2)cc1=O` (stereo not shown) [Example 20, tert-butyl 3-[(1-Methyl-6-oxo-4-pyridin-4-yl-1,6-dihydropyrimidin-2-yl)amino]azepane-1-carboxylate] the pIC50 was 7.62.
Compound `Cn1c(N[C@@H]2CC[C@@H](NC(=O)OC(C)(C)C)C2)nc(-c2ccncc2)cc1=O` [Example 21, tert-butyl {(1R,3R)-3-[(1-Methyl-6-oxo-4-pyridin-4-yl-1,6-dihydropyrimidin-2-yl)amino]cyclopentyl} carbamate] has a pIC50 of 7.28.
With `Cn1c(N2CCc3ccccc3C2Cc2ccccc2)nc(-c2ccncc2)cc1=O` (stereo not shown) [Example 22, 2-(1-Benzyl-3,4-dihydroisoquinolin-2(1H)-yl)-3-methyl-6-pyridin-4-ylpyrimidin-4(3H)-one] the pIC50 was 7.43.
In the case of `CN(c1nc(-c2ccncc2)cc(=O)n1C)[C@H]1CC[C@H]2NCC[C@@]2(C)C1` [Example 23, 3-methyl-2-{Methyl[(3aS,5S,7aR)-3a-methyloctahydro-1H-indol-5-yl]amino}-6-pyridin-4-ylpyrimidin-4(3H)-one], the pIC50 was 7.33.
Work on `Cn1c(NC2CCN(C(=O)OC(C)(C)C)C2)nc(-c2ccncc2)cc1=O` (stereo not shown) [Example 24, tert-butyl 3-[(1-Methyl-6-oxo-4-pyridin-4-yl-1,6-dihydropyrimidin-2-yl)amino]pyrrolidine-1-carboxylate] yielded a pIC50 of 7.37.
`Cn1c(N2CCN(C(=O)OC(C)(C)C)[C@@H]3CCCC[C@H]32)nc(-c2ccncc2)cc1=O` [Example 25, tert-butyl (4aR,8aR)-4-(1-Methyl-6-oxo-4-pyridin-4-yl-1,6-dihydropyrimidin-2-yl)octahydroquinox-aline-1(2H)-carboxylate] gave a pIC50 of 7.40.
Work on `Cn1c(N2CC[C@@H]3CN(C(=O)OC(C)(C)C)C[C@@H]32)nc(-c2ccncc2)cc1=O` [Example 26, tert-butyl (3aR,6aR)-1-(1-Methyl-6-oxo-4-pyridin-4-yl-1,6-dihydropyrimidin-2-yl)hexahydropyrrolo [3,4-b]pyrrole-5(1H)-carboxylate] yielded a pIC50 of 7.01.
`Cn1c(NC2(c3cccc(C(C)(C)C)c3)CCOCC2)nc(-c2ccncc2)cc1=O` [Example 27, 2-{[4-(3-tert-Butylphenyl)tetra-hydro-2H-pyran-4-yl]amino}-3-methyl-6-pyridin-4-ylpyrimidin-4(3H)-one] was tested, and the pIC50 was 7.92.
In the case of `COc1cccc2c1CC[C@@H](Nc1nc(-c3ccncc3)cc(=O)n1C)[C@H]2C` [Example 28, 2-{[(1S,2R)-5-Methoxy-1-methyl-1,2,3,4-tetrahydronaphthalen-2-yl]amino}-3-methyl-6-pyridin-4-ylpyrimidin-4(3H)-one], the pIC50 was 8.41.
In the case of `Cn1c(NCCc2nc(-c3ccccc3)cs2)nc(-c2ccncc2)cc1=O` [Example 29, 3-Methyl-2-{[2-(4-phenyl-1,3-thiazol-2-yl)ethyl]amino}-6-pyridin-4-ylpyrimidin-4(3H)-one], the pIC50 was 7.80.
